According to patent US20250313548A1 (Actio Biosciences, Inc., priority 2023, published 2025):

These molecules were tested against human, KCNT1 (Homo sapiens (Human), UniProt Q5JUK3) (assay: FLIPR Tl/K Flux Assay). Conditions: HEK293 cells stably expressing human KCNT1; Tl+ flux stimulated with EC80 of agonist Loxapine.
Format: cell-based
Summary of the method: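 HEK293 cells stably expressing human KCNT1 were loaded with FLIPR potassium dye in HEPES/HBSS pH 7.4 with 5 mM probenecid, 1 h at 25 °C, then given test compound for 30 min at 25 °C. Tl+ flux was triggered with chloride-free buffer containing Tl+ and EC80 loxapine and read 160 s. IC50 came from Hill fits of % inhibition.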

Chain of human, KCNT1 (Q5JUK3 whole entry): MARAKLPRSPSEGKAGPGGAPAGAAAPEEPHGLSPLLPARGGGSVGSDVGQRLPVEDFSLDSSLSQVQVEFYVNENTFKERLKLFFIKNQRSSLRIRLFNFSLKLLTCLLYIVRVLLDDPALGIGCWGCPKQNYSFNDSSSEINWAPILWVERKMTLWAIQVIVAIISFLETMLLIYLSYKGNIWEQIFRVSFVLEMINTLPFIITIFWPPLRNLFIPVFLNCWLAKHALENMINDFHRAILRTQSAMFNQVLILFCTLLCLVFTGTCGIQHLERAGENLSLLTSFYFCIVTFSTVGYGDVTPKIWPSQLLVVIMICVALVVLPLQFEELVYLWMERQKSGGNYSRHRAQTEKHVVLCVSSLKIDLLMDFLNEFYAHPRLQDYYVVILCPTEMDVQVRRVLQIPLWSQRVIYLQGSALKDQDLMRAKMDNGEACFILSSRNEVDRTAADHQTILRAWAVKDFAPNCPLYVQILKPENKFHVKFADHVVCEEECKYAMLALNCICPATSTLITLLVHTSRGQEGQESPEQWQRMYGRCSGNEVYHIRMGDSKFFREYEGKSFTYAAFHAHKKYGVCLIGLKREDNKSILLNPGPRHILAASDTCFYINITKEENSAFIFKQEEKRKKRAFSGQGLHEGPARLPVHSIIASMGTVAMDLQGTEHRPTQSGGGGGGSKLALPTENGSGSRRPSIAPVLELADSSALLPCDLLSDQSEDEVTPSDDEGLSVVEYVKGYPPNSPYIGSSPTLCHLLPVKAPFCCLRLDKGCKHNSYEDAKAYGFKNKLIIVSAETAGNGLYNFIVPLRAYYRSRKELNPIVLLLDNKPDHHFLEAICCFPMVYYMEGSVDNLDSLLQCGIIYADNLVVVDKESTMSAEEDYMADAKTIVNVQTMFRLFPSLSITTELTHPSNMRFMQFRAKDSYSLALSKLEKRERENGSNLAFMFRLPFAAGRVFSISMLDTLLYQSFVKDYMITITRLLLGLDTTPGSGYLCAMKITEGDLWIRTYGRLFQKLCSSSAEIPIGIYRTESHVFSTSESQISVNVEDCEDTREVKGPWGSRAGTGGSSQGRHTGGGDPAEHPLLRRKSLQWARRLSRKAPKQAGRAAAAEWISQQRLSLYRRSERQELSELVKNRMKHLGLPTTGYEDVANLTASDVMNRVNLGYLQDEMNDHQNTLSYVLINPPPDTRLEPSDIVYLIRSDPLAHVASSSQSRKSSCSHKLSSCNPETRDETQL

| IC50 [nM] | SMILES |
| --- | --- |
| < 250 | N#Cc1cc(C(=O)N[C@H]2CCCn3nc(-c4ccnc(C(F)(F)F)c4)cc32)cc(C2CC2)c1 [Compound I-333a, (S)-3-Cyano-5-cyclopropyl-N-(2-(2-(trifluoromethyl)pyridin-4-yl)-4,5,6,7-tetrahydropyrazolo[1,5-a]pyridin-4-yl)benzamide] |
| > 1000 | CC(C)(C)OC(=O)N[C@@H]1CCc2nn(-c3ccnc(C(F)(F)F)c3)cc21 [Compound I-105b] |
| > 1000 | Cn1nc(C(F)(F)F)cc1C(=O)NC1CCCc2nn(-c3ccn(C)c(=O)c3)cc21 (racemic) [Compound I-40, (rac)-1-Methyl-N-(2-(1-methyl-2-oxo-1,2-dihydropyridin-4-yl)-4,5,6,7-tetrahydro-2H-indazol-4-yl)-3-(trifluoromethyl)-1H-pyrazole-5-carboxamide] |
| < 250 | O=C(N[C@H]1CCCc2nc(-c3ccnc(C(F)(F)F)c3)oc21)c1cccc(C(F)(F)F)c1 [Compound I-188a, (S)-3-(Trifluoromethyl)-N-(2-(2-(trifluoromethyl)pyridin-4-yl)-4,5,6,7-tetrahydrobenzo[d]oxazol-7-yl)benzamide] |
| < 250 | COc1cc(-c2cc3n(n2)CC[C@@H]3NC(=O)c2cncc(C(F)(F)F)n2)c(F)cn1 [Compound I-576a, (S)-N-(2-(5-Fluoro-2-methoxypyridin-4-yl)-5,6-dihydro-4H-pyrrolo[1,2-b]pyrazol-4-yl)-6-(trifluoromethyl)pyrazine-2-carboxamide] |
| 500 to 1000 | Cn1nc(C(F)(F)F)cc1C(=O)N[C@@H]1CCc2nn(-c3ccnc(C4CC4)c3)cc21 [Compound I-71b] |
| > 1000 | CCOc1cc(-n2cc3c(n2)CCCC[C@H]3NC(=O)c2cc(C(F)(F)F)nn2C)ccn1 [Compound I-360b] |
| 250 to 500 | COc1cc(-c2cc3n(n2)CCC[C@@H]3NC(=O)c2cccc(C(F)(F)F)n2)ccn1 [Compound I-356a] |
| < 250 | Cn1nc(C(F)(F)F)cc1C(=O)NC1Cc2cc(-c3ccnc(C(F)(F)F)c3)nn2C1 (stereo not drawn) [Compound I-469] |
| > 1000 | Cn1nc(C(F)(F)F)cc1C(=O)NC1CCc2ccc(-c3ccnc(C(F)(F)F)c3)nc21 (stereo not drawn) [Compound I-43] |
| < 250 | N#Cc1cc(C(=O)N[C@H]2CCc3nn(-c4ccnc(C(F)(F)F)c4)cc32)ccc1F [Compound I-267a, (S)-3-Cyano-4-fluoro-N-(2-(2-(trifluoromethyl)pyridin-4-yl)-2,4,5,6-tetrahydrocyclopenta[c]pyrazol-4-yl)benzamide] |
| < 250 | Cc1nn(C(F)(F)F)cc1C(=O)N[C@H]1CCCn2nc(-c3ccnc(C(F)(F)F)c3)cc21 [Compound I-325a, (S)-3-Methyl-1-(trifluoromethyl)-N-(2-(2-(trifluoromethyl)pyridin-4-yl)-4,5,6,7-tetrahydropyrazolo[1,5-a]pyridin-4-yl)-1H-pyrazole-4-carboxamide] |
| < 250 | CCc1cc(F)cc(C(=O)N[C@H]2CCc3nn(-c4ccnc(C(F)(F)F)c4)cc32)c1 [Compound I-127a, (S)-3-Ethyl-5-fluoro-N-(2-(2-(trifluoromethyl)pyridin-4-yl)-2,4,5,6-tetrahydrocyclopenta[c]pyrazol-4-yl)benzamide] |
| < 250 | Cc1cc(C#N)cc(C(=O)NC2CCn3nc(-c4ccnc(C5CC5)c4)cc32)c1 (stereo not drawn) [Compound I-306a, 3-Cyano-N-(2-(2-cyclopropylpyridin-4-yl)-5,6-dihydro-4H-pyrrolo[1,2-b]pyrazol-4-yl)-5-methylbenzamide] |
| 250 to 500 | Cn1nc(C(F)(F)F)cc1C(=O)N[C@H]1CCCc2cnc(-c3ccnc(C(F)(F)F)c3)nc21 [Compound I-452a] |
| < 250 | O=C(N[C@H]1CCCn2nc(-c3cc(C(F)(F)F)ncc3F)cc21)c1cnc2ccccc2n1 [Compound I-195a, (S)-N-(2-(5-Fluoro-2-(trifluoromethyl)pyridin-4-yl)-4,5,6,7-tetrahydropyrazolo[1,5-a]pyridin-4-yl)quinoxaline-2-carboxamide] |
| < 250 | O=C(N[C@H]1CCCc2oc(-c3ccnc(C4CC4)c3)nc21)c1cn(C(F)(F)F)nc1C(F)(F)F [Compound I-519a, (S)—N-(2-(2-cyclopropylpyridin-4-yl)-4,5,6,7-tetrahydrobenzo[d]oxazol-4-yl)-1,3-bis(trifluoromethyl)-1H-pyrazole-4-carboxamide] |
| 500 to 1000 | Cc1cccc(C(=O)N[C@@H]2CCCCc3nn(-c4ccnc(C5CC5)c4)cc32)c1 [Compound I-58b] |
| < 250 | Cn1nc(C(F)(F)F)cc1C(=O)N[C@H]1CCCc2nc(-c3ccnc(C4CC4)c3)oc21 [Compound I-180a, (S)-N-(2-(2-Cyclopropylpyridin-4-yl)-4,5,6,7-tetrahydrobenzo[d]oxazol-7-yl)-1-methyl-3-(trifluoromethyl)-1H-pyrazole-5-carboxamide] |
| 500 to 1000 | Cn1nc(C(F)(F)F)cc1C(=O)N[C@@H]1CCc2nn(-c3ccnc(C(C)(F)F)c3)cc21 [Compound I-77b] |

| IC50 [nM] | SMILES |
| --- | --- |
| < 250 | COc1cc(-c2nc3c(o2)[C@@H](NC(=O)c2cccc(C(F)(F)F)c2)CCC3)ccn1 [Compound I-168a, (S)-N-(2-(2-Methoxypyridin-4-yl)-4,5,6,7-tetrahydrobenzo[d]oxazol-7-yl)-3-(trifluoromethyl)benzamide] |
| 250 to 500 | Cn1nc(C(F)(F)F)cc1C(=O)N[C@H]1CCc2cnc(-c3ccnc(C(F)(F)F)c3)nc21 [Compound I-46a, (S)-1-Methyl-3-(trifluoromethyl)-N-(2-(2-(trifluoromethyl)pyridin-4-yl)-6,7-dihydro-5H-cyclopenta[d]pyrimidin-7-yl)-1H-pyrazole-5-carboxamide] |
| < 250 | Cn1nc(C(F)(F)F)cc1C(=O)N[C@H]1CCCn2nc(-c3ccnc(OC(F)F)c3)cc21 [Compound I-378a] |
| < 250 | COc1cc(-c2nc3c(o2)[C@@H](NC(=O)c2cc(Cl)cc(Cl)c2)CCC3)c(Cl)cn1 [Compound I-162a, (S)-3,5-Dichloro-N-(2-(5-chloro-2-methoxypyridin-4-yl)-4,5,6,7-tetrahydrobenzo[d]oxazol-7-yl)benzamide] |
| < 250 | Cc1cc(C)cc(C(=O)N[C@H]2CCc3nn(-c4ccnc(C(F)(F)F)c4)cc32)c1 [Compound I-372a] |
| < 250 | COc1cc(-n2cc3c(n2)CC[C@@H]3NC(=O)c2ccc(F)c(C#N)c2)ccn1 [Compound I-259a, (S)-3-Cyano-4-fluoro-N-(2-(2-methoxypyridin-4-yl)-2,4,5,6-tetrahydrocyclopenta[c]pyrazol-4-yl)benzamide] |
| < 250 | O=C(N[C@H]1CCCc2oc(-c3ccnc(C4CC4)c3)nc21)c1cncc(C(F)(F)F)n1 [Compound I-231a] |
| > 1000 | Cn1nc(C(F)(F)F)cc1C(=O)NC1CCCc2nn(-c3ccc(=O)n(C)c3)cc21 (racemic) [Compound I-39, (rac)-1-Methyl-N-(2-(1-methyl-6-oxo-1,6-dihydropyridin-3-yl)-4,5,6,7-tetrahydro-2H-indazol-4-yl)-3-(trifluoromethyl)-1H-pyrazole-5-carboxamide] |
| < 250 | Cn1nc(C(F)(F)F)cc1C(=O)N[C@H]1CCCn2nc(-c3ccnc(C4CC4)c3)cc21 [Compound I-64a] |
| < 250 | O=C(N[C@H]1CCCc2nc(-c3ccnc(C(F)(F)F)c3)oc21)c1cncc(C(F)(F)F)n1 [Compound I-184a, (S)-6-(Trifluoromethyl)-N-(2-(2-(trifluoromethyl)pyridin-4-yl)-4,5,6,7-tetrahydrobenzo[d]oxazol-7-yl)pyrazine-2-carboxamide] |
| > 1000 | Cn1nc(C(F)(F)F)cc1C(=O)N[C@@H]1CCc2nn(-c3ccnc(C4CCC4)c3)cc21 [Compound I-72b] |
| < 250 | N#Cc1cc(C(=O)N[C@H]2CCn3nc(-c4ccnc(C(F)(F)F)c4)cc32)cc(C(F)(F)F)c1 [Compound I-288a, (S)-3-Cyano-5-(trifluoromethyl)-N-(2-(2-(trifluoromethyl)pyridin-4-yl)-5,6-dihydro-4H-pyrrolo[1,2-b]pyrazol-4-yl)benzamide] |
| < 250 | O=C(N[C@H]1CCCCn2nc(-c3ccnc(C(F)(F)F)c3)cc21)c1cc(Cl)cc(C(F)(F)F)c1 [Compound I-387a] |
| < 250 | Cn1nc(-c2ccccc2)cc1C(=O)N[C@H]1CCCn2nc(-c3ccnc(C(F)(F)F)c3)cc21 [Compound I-351a] |
| < 250 | COc1cc(C(=O)N[C@H]2CCCn3nc(-c4ccnc(C(F)(F)F)c4)nc32)ccn1 [Compound I-214a, (S)-2-Methoxy-N-(2-(2-(trifluoromethyl)pyridin-4-yl)-5,6,7,8-tetrahydro-[1,2,4]triazolo[1,5-a]pyridin-8-yl)isonicotinamide] |
| < 250 | N#Cc1cc(C(=O)N[C@H]2CCCCn3nc(-c4ccnc(C(F)(F)F)c4)cc32)ccc1F [Compound I-277a, (S)-3-Cyano-4-fluoro-N-(2-(2-(trifluoromethyl)pyridin-4-yl)-5,6,7,8-tetrahydro-4H-pyrazolo[1,5-a]azepin-4-yl)benzamide] |
| < 250 | N#Cc1cc(C(=O)N[C@H]2CCCn3nc(-c4ccnc(C(F)(F)F)c4)cc32)cc(C(F)(F)F)c1 [Compound I-295a, (S)-3-Cyano-5-(trifluoromethyl)-N-(2-(2-(trifluoromethyl)pyridin-4-yl)-4,5,6,7-tetrahydropyrazolo[1,5-a]pyridin-4-yl)benzamide] |
| < 250 | O=C(N[C@H]1CCCn2nc(-c3ccnc(C(F)(F)F)c3)cc21)c1ccnc(OC(F)(F)F)c1 [Compound I-213a, (S)-2-(Trifluoromethoxy)-N-(2-(2-(trifluoromethyl)pyridin-4-yl)-4,5,6,7-tetrahydropyrazolo[1,5-a]pyridin-4-yl)isonicotinamide] |
| < 250 | O=C(N[C@H]1CCCn2nc(-c3cc(C4CC4)ncc3F)cc21)c1ccnc(OC(F)(F)F)c1 [Compound I-498a, (S)-N-(2-(2-Cyclopropyl-5-fluoropyridin-4-yl)-4,5,6,7-tetrahydropyrazolo[1,5-a]pyridin-4-yl)-2-(trifluoromethoxy)isonicotinamide] |
